Source: PMC7359744 (ACS chemical neuroscience, 2020)

How the values were obtained:
male C57 BL/6 mice = assay: animal or person; assay type: in vivo
[1] = target: human κ-opioid receptor (OPRK1) (Homo sapiens, UniProt P41145); assay type: cell-based; conditions: read-out: KOR EC50 ± SEM
[2] = tested on: human μ-opioid receptor β-arrestin-2; assay type: cell-based

Sequence of human κ-opioid receptor (OPRK1) (P41145 whole entry): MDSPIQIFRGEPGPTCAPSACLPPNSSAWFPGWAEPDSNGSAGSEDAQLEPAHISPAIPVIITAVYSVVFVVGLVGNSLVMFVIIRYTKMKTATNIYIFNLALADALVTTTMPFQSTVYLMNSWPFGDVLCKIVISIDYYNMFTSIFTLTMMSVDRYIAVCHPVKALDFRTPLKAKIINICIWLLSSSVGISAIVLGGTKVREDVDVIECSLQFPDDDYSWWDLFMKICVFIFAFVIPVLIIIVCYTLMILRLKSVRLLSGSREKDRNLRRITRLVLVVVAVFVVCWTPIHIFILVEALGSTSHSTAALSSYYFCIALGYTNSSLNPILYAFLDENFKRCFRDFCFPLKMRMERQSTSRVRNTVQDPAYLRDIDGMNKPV

Compound	antinociceptive ED50, day 1 (male C57 BL/6 mice; mouse, in vivo)	antinociceptive ED50, day 9 (male C57 BL/6 mice; mouse, in vivo)	antinociceptive tolerance on day 9 compared to day 1 (male C57 BL/6 mice; mouse, in vivo, sc)	EC50 [1]	Bias Factor [2]	β-arrestin recruitment % Efficacy [2]	ED50 (male C57 BL/6 mice; Mus musculus, 24 h, read-out: antinociceptive ED50, day 1)	onset of tolerance (male C57 BL/6 mice; mouse, in vivo, sc)
COC(=O)[C@@H]1C=C(OC(=O)c2ccccc2)C(=O)[C@H]2[C@@]1(C)CC[C@H]1C(=O)O[C@H](c3ccoc3)C[C@]21C [Compound 1, kurkinorin]	5 ± 0.51 mg/kg	7.9 ± 0.11 mg/kg	reduced tolerance compared to morphine	> 10 µM	–	–	–	–
C[C@@H](NC(=O)[C@@H](N)Cc1ccc(O)cc1)C(=O)NCC(=O)N(C)[C@@H](Cc1ccccc1)C(=O)NCCO [DAMGO]	–	–	–	–	1	42 ± 5 (97) %	–	–
CN1CC[C@]23c4c5ccc(O)c4O[C@H]2[C@@H](O)C=C[C@H]3[C@H]1C5 [Morphine]	–	–	significant induction of tolerance	–	–	–	6.43 ± 0.27 mg/kg	5 days
